# Active and inactive are the calls of the source. The rule behind the calls is not given here.
# Experiments:
# [1] = test system: Rattus norvegicus; experiment: Antiinflammatory activity in LPS-stimulated rat assessed as total number of leukocytes in bronchoalveolar lavage fluid at 3 mg/kg, po administered 1 hr before LPS challenge measured after 3 hrs; type: functional, Lung
# [2] = target: 3',5'-cyclic-AMP phosphodiesterase 4B (Homo sapiens, UniProt Q07343); experiment: Inhibition of core catalytic domains PDE4B (unknown origin)
# [3] = target: T1, cGMP-inhibited 3',5'-cyclic phosphodiesterase 3A (Homo sapiens, UniProt Q14432); experiment: Inhibition of core catalytic domains PDE3A (unknown origin) at 100 uM
# [4] = target: T1, cGMP-inhibited 3',5'-cyclic phosphodiesterase 3A; experiment: Inhibition of core catalytic domains PDE3A (unknown origin)
# [5] = test system: Rattus norvegicus; experiment: Antiinflammatory activity in LPS-stimulated rat assessed as total number of leukocytes in bronchoalveolar lavage fluid at 1 mg/kg, po administered 1 hr before LPS challenge measured after 3 hrs; type: functional, Lung
# [6] = test system: Rattus norvegicus; experiment: Antiinflammatory activity in LPS-stimulated rat assessed as total number of leukocytes in bronchoalveolar lavage fluid at 10 mg/kg, po administered 1 hr before LPS challenge measured after 3 hrs; type: functional, Lung
# T1 sequence (Q14432 whole entry, the tested form may be a part): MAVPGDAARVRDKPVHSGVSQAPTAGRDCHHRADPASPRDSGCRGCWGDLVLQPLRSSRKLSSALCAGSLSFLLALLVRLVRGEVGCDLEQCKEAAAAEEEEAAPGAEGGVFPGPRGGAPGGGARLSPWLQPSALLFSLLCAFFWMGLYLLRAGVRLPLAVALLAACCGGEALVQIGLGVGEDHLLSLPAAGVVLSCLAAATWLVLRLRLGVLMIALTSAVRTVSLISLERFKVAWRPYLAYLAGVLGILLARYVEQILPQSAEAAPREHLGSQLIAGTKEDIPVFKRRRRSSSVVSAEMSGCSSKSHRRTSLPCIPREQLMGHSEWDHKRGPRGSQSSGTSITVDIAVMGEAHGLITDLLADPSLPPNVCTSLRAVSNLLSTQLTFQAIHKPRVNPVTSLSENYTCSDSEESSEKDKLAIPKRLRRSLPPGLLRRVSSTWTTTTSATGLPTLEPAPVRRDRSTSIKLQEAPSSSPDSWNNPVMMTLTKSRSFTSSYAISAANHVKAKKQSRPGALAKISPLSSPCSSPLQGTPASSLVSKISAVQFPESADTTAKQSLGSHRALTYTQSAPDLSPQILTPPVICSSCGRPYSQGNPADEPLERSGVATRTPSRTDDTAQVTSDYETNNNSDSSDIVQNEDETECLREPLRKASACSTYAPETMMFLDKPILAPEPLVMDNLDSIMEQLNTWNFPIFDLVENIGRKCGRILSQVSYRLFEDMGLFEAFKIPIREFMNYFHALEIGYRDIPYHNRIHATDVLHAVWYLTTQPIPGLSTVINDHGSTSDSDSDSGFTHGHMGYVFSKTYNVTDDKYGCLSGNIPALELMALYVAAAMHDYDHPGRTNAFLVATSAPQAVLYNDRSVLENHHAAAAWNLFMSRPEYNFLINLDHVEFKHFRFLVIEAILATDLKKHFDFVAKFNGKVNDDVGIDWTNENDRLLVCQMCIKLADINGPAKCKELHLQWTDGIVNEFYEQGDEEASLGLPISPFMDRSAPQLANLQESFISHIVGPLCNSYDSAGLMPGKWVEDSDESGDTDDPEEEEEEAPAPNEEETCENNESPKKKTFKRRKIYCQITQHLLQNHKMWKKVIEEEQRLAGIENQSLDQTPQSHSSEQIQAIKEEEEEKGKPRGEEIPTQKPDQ
# 3',5'-cyclic-AMP phosphodiesterase 4B, sequence (Q07343 whole entry, the tested form may be a part): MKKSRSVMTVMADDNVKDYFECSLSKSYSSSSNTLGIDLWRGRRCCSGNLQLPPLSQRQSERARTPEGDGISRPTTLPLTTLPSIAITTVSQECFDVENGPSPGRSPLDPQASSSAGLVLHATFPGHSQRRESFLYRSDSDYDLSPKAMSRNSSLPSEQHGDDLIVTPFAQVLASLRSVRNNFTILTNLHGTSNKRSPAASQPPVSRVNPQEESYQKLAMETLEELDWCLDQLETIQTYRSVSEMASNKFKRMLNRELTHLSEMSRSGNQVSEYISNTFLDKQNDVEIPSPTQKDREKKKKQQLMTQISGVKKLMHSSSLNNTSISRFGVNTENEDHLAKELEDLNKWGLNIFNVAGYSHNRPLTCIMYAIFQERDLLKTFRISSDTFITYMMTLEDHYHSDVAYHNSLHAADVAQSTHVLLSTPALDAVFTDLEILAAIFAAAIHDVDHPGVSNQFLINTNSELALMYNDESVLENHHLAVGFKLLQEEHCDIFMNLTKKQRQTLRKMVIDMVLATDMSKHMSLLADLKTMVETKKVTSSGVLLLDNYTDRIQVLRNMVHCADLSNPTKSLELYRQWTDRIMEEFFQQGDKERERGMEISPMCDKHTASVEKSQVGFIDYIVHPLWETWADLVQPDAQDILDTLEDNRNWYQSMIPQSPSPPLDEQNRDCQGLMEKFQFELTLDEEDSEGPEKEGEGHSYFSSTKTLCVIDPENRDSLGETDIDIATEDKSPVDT
IC50 [2],inhibition [3],IC50 [4],Compound,Activity [1],Activity [5],Activity [6]
0.0015 µM,inactive,,COc1ccc(C(=O)Nc2c(Cl)c[n+]([O-])cc2Cl)c2cc(C(F)(F)F)nn12,77%,,
0.0094 µM,inactive,,COc1ccc(C(=O)Cc2ccncc2)c2cc(C(F)(F)F)nn12,,,
0.24 µM,inactive,,COc1ccc(NC(=O)c2c(Cl)cncc2Cl)c2cc(C(F)(F)F)nn12,,,
1.26 µM,inactive,,COc1ccc(C(=O)C(=O)c2ccncc2)c2cc(C(F)(F)F)nn12,,,
0.083 µM,inactive,,COc1ccc(C(=O)Nc2c(Cl)cncc2Cl)c2cc(C(C)O)nn12 (centres undefined),60%,,
0.11 µM,inactive,,COc1ccc(C(=O)Nc2c(Cl)cncc2Cl)c2cc(C(C)C)nn12,64%,,
6.13 µM,inactive,,COc1cccc2c(C(=O)Nc3c(Cl)cncc3Cl)c(C(F)(F)F)nn12,,,
0.00011 µM,,> 100 µM,CSc1ccc(C(=O)Nc2c(Cl)cncc2Cl)c2cc(C(F)(F)F)nn12,52%,,
0.039 µM,inactive,,COc1ccc(C(O)Cc2c(Cl)cncc2Cl)c2cc(C(F)(F)F)nn12 (centres undefined),,,
,,,"COc1ccc(C2=NNC(=O)CC2C)c2cc(C(F)(F)F)nn12 (single isomer, unassigned; (-))",,79%,
,,> 100 µM,O=C(Nc1c(Cl)cncc1Cl)c1ccc(OC(F)F)c(OCC2CC2)c1 [ROFLUMILAST],,,59%
0.01 µM,inactive,,COc1ccc(C(=O)Nc2c(Cl)c[n+]([O-])cc2Cl)c2cc(C(C)C)nn12,,,63%
0.0051 µM,,> 100 µM,COc1ccc(C(=O)Nc2c(Cl)cncc2Cl)c2cc(/C=N/O)nn12,41%,,
0.55 µM,inactive,,COc1ccc(C(=O)Nc2c(Cl)cncc2Cl)c2cc(C(=O)O)nn12,,,
0.0055 µM,inactive,,COc1ccc(/C=C/c2c(Cl)cncc2Cl)c2cc(C(F)(F)F)nn12,39%,,
0.0002 µM,inactive,,COc1ccc(C(=O)Nc2c(Cl)cncc2Cl)c2cc(C(F)F)nn12,32%,,
0.039 µM,,> 100 µM,COc1ccc(C(=O)Nc2c(Cl)cncc2Cl)c2ccnn12,0%,,
0.021 µM,inactive,,CC(=O)c1ccc(C(=O)Nc2c(Cl)cncc2Cl)c2cc(C(F)(F)F)nn12,43%,,
0.0098 µM,inactive,,COc1ccc(C(=O)Nc2c(Cl)cncc2Cl)c2cc(C=O)nn12,64%,,
0.98 µM,inactive,,COc1ccc(C(=O)c2ccncc2)c2cc(C(F)(F)F)nn12,,,
0.0049 µM,inactive,,COc1ccc(CCc2ccncc2)c2cc(C(F)(F)F)nn12,55%,,
0.57 µM,,> 100 µM,COc1ccc(Cc2ccncc2)c2cc(C(F)(F)F)nn12,,,

IC50 [2],inhibition [3],IC50 [4],Compound,Activity [1],Activity [5],Activity [6]
0.00051 µM,,> 100 µM,COc1ccc(C(=O)Nc2c(Cl)cncc2Cl)c2cc(C3CC3)nn12,71%,,
0.0029 µM,inactive,,COc1ccc(C(=O)Cc2c(Cl)cncc2Cl)c2cc(C(F)(F)F)nn12,,,87%
0.0028 µM,inactive,,COc1ccc(C(=O)Nc2c(Cl)c[n+]([O-])cc2Cl)c2cc(C3CC3)nn12,,62%,
0.05 µM,inactive,,COCc1cc2c(C(=O)Nc3c(Cl)c[n+]([O-])cc3Cl)ccc(OC)n2n1,18%,,
0.00019 µM,inactive,,CNc1ccc(C(=O)Nc2c(Cl)cncc2Cl)c2cc(C(F)(F)F)nn12,33%,,
0.0029 µM,,> 100 µM,COc1ccc(C(=O)Nc2c(Cl)cncc2Cl)c2cc(C(C)=O)nn12,41%,,
0.75 µM,inactive,,COc1ccc(C(O)Cc2ccncc2)c2cc(C(F)(F)F)nn12 (centres undefined),,,
0.00027 µM,inactive,,COc1ccc(C(=O)Nc2c(Cl)cncc2Cl)c2cc(C(F)(F)F)nn12,,60%,
0.0041 µM,,> 100 µM,COc1ccc(C(=O)Nc2c(Cl)cncc2Cl)c2cc(C#N)nn12,66%,,
10.2 µM,inactive,,COc1ccc(C(O)c2ccncc2)c2cc(C(F)(F)F)nn12 (centres undefined),,,
0.022 µM,inactive,,COc1ccc(C(=O)Nc2c(Cl)c[n+]([O-])cc2Cl)c2cc(C#N)nn12,61%,,
0.007 µM,,> 100 µM,CCc1cc2c(C(=O)Nc3c(Cl)cncc3Cl)ccc(OC)n2n1,53%,,
0.015 µM,,67.1 µM,COc1ccc(/C=C/c2ccncc2)c2cc(C(F)(F)F)nn12,57%,,
0.031 µM,inactive,,O=C(Nc1c(Cl)cncc1Cl)c1ccc(CO)n2nc(C(F)(F)F)cc12,26%,,
0.0094 µM,inactive,,CCc1cc2c(C(=O)Nc3c(Cl)c[n+]([O-])cc3Cl)ccc(OC)n2n1,40%,,
0.008 µM,,> 100 µM,CC(O)c1ccc(C(=O)Nc2c(Cl)cncc2Cl)c2cc(C(F)(F)F)nn12 (centres undefined),59%,,
0.0045 µM,inactive,,COCc1ccc(C(=O)Nc2c(Cl)cncc2Cl)c2cc(C(F)(F)F)nn12,31%,,
0.013 µM,inactive,,COCc1cc2c(C(=O)Nc3c(Cl)cncc3Cl)ccc(OC)n2n1,,54%,
16.6 µM,inactive,,COc1cccc2c(C(=O)Nc3c(Cl)c[n+]([O-])cc3Cl)c(C(F)(F)F)nn12,,,
0.0027 µM,inactive,,COc1ccc(C(=O)Nc2c(Cl)c[n+]([O-])cc2Cl)c2ccnn12,57%,,
0.15 µM,,71.4 µM,COc1ccc(CNc2c(Cl)cncc2Cl)c2cc(C(F)(F)F)nn12,,,

# Source: ChEMBL document CHEMBL2424518, “Phosphodiesterase inhibitors. Part 6: design, synthesis, and structure-activity relationships of PDE4-inhibitory pyrazolo[1,5-a]pyridines with anti-inflammatory activity” (Bioorg Med Chem Lett, 2013)
